Results taken from ChEMBL document CHEMBL1126443, “Cholinergic agents: aldehyde, ketone, and oxime analogues of the muscarinic agonist UH5” (Bioorg Med Chem Lett, 1992).
pIC50: −log10 of the molar value.

Experiments:
[1] = molecular target: T1, Muscarinic acetylcholine receptor (Rattus norvegicus) (UniProt P08482+P08483+P08485+P08911+P10980); assay: Relative binding efficacy for muscarinic receptors using QNB and CMD; assay type: protein assay
[2] = molecular target: Muscarinic acetylcholine receptor; assay: Inhibition of 0.03 nM [3H]quinuclidinyl benzylate binding to rat neocortex muscarinic receptor; assay type: protein assay
[3] = molecular target: Muscarinic acetylcholine receptor; assay: Inhibition of 0.1 nM [3H]cis-methyldioxolane binding to rat neocortex muscarinic receptor; assay type: protein assay
[4] = molecular target: T2, Muscarinic acetylcholine receptor M1 (Homo sapiens, UniProt P11229); assay: Displacement of [3H]QNB in genetically transformed mouse cell line (m1C2) transfected with Muscarinic acetylcholine receptor M1
T2 sequence (P11229 whole entry): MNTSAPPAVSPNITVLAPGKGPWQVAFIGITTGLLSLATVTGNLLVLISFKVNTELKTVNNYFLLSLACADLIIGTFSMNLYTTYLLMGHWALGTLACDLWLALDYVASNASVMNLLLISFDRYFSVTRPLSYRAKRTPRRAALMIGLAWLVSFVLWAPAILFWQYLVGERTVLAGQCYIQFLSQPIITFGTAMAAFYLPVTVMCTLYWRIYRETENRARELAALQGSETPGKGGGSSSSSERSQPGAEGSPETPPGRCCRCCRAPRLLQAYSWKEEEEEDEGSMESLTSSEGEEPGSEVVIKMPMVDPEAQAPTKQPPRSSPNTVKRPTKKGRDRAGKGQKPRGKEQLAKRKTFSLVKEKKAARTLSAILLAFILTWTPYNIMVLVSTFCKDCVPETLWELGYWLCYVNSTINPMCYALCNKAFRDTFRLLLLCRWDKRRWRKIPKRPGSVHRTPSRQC

[5] = Selectivity ratio of M2/m1 receptors
[6] = molecular target: T3, Muscarinic acetylcholine receptor M2 (Rattus norvegicus, UniProt P10980); assay: Displacement of [3H]QNB from Muscarinic acetylcholine receptor M2 from rat heart homogenates; assay type: tissue-based
T3 sequence (P10980 whole entry): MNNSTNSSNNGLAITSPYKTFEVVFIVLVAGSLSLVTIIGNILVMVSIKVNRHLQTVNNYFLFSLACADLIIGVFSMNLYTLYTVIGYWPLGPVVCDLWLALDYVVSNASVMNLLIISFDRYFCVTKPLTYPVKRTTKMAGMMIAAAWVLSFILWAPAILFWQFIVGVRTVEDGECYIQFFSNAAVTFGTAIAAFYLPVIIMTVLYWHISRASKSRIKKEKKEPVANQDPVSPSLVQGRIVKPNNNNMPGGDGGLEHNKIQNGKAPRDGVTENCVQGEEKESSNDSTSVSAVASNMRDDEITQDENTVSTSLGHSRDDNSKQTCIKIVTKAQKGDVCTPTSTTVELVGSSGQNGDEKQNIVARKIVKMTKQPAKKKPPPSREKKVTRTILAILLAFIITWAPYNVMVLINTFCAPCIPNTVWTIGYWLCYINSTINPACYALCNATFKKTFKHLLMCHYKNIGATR

[7] = molecular target: T1, Muscarinic acetylcholine receptor (Rattus norvegicus); assay: Percent inhibition towards muscarinic receptor in rat neocortex using 0.1 nM [3H]cis-methyldioxolane receptor binding assay (RCMD)
[8] = molecular target: T1, Muscarinic acetylcholine receptor (Rattus norvegicus); assay: Percent inhibition towards muscarinic receptor in rat neocortex using 0.03 nM [3H]quinuclidinyl benzylate receptor binding assay (RQMB) was determined

| Compound | Efficacy ratio [1] | IC50 [2] | IC50 [3] | pIC50 [4] | Selectivity ratio [5] | pIC50 [6] | inhibition [7] | inhibition [8] |
| --- | --- | --- | --- | --- | --- | --- | --- | --- |
| C/C(CCC#CCN(C)C)=N\O | 265 | 36.769 µM | 0.139 µM |  |  |  |  |  |
| CC(=O)N(C)CC#CCN1CCCC1 | 544 | 2.447 µM | 0.0045 µM | 5.61 | 0.9 | 5.70 |  |  |
| CC(=O)CCC#CCN1CCCC1 | 34 | 7.28 µM | 0.214 µM |  |  |  |  |  |
| CC(/C=N/O)CC#CCN1CCCC1 (centres undefined) | 92 | 1.928 µM | 0.021 µM | 6.04 | 4.8 | 5.26 |  |  |
| CO/N=C(\C)C(C)CC#CCN1CCCC1 (centres undefined) |  |  |  |  |  |  | 21% | 26% |
| CO/N=C/C(C)CC#CCN(C)C (centres undefined) |  |  |  |  |  |  | 6% | 4% |
| CC(=O)CCC#CCN(C)C | 965 | 65.6 µM | 0.068 µM | 4.29 | 0.4 | 4.72 |  |  |
| CC(=O)C(C)CC#CCN1CCCC1 (centres undefined) | 97 | 5.696 µM | 0.059 µM | 5.55 | 2.3 | 5.19 |  |  |
| CO/N=C(\C)C(C)CC#CCN(C)C (centres undefined) |  |  |  |  |  |  | 5% | 3% |
| CO/N=C(\C)CCC#CCN1CCCC1 |  |  |  |  |  |  | 5% | 17% |
| C/C(CCC#CCN1CCCC1)=N\O | 3 | 1.254 µM | 0.373 µM |  |  |  |  |  |
| CC(/C=N/O)CC#CCN(C)C (centres undefined) | 441 | 13.23 µM | 0.03 µM | 4.59 | 1.3 | 4.47 |  |  |
| CC(=O)C(C)CC#CCN(C)C (centres undefined) | 549 | 55.4 µM | 0.101 µM |  |  |  |  |  |
| C[N+](C)(C)CC#CCOC(=O)Nc1cccc(Cl)c1.[Cl-] | 84 | 5.388 µM | 0.064 µM | 5.14 | 4.7 | 4.47 |  |  |
| C/C(=N\O)C(C)CC#CCN1CCCC1 (centres undefined) |  |  |  |  |  |  | 21% | 15% |
| CC(C=O)CC#CCN(C)C (centres undefined) |  |  |  |  |  |  | 0% | 0% |
| CC(C=O)CC#CCN1CCCC1 (centres undefined) |  |  |  |  |  |  | 1% | 9% |
| CO/N=C(\C)CCC#CCN(C)C |  |  |  |  |  |  | 5% | 1% |
| CC(=O)N(C)CC#CCN(C)C | 4070 | 87.876 µM | 0.0216 µM | 4.06 | 0.2 | 5.35 |  |  |
| C/C(=N\O)C(C)CC#CCN(C)C (centres undefined) |  |  |  |  |  |  | 12% | 9% |
| O=C1CCCN1CC#CCN1CCCC1 [OXOTREMORINE] | 308 | 0.407 µM | 0.0015 µM | 6.44 | 2.4 |  |  |  |
| CO/N=C/C(C)CC#CCN1CCCC1 (centres undefined) |  |  |  |  |  |  | 27% | 15% |
